Test results: publication PMC7587369, “Antitumor Activity of Ruthenium(II) Terpyridine Complexes towards Colon Cancer Cells In Vitro and In Vivo” (Molecules, 2020)

What was measured:
[1] = test system: CT26 (mouse colon carcinoma cell line); assay: MTT assay cytotoxicity, CT26; format: cell-based
Method: (§1) Oxaliplatin was included for comparison as a reference substance, and was tested under the same conditions.
(§2) The cells were harvested from the culture flasks during the exponential growth phase, counted and 5 × 10^3 cells/well were seeded into 96-well culture plates. About 24 h later, after the cell adherence, each well was treated with 100 μL of tested complexes, which had been serially diluted two-fold in medium to concentrations ranging from 300 to 2.3 μM. All cells were incubated at 37 °C in an atmosphere containing 5% CO2 and at absolute humidity for 24 and 72 h. After incubation, the culture medium was removed from each well and MTT solution (5 mg/mL in phosphate buffered saline (PBS)) was added to each well and cells were incubated 4 h under culture conditions. The cell-free supernatants were suctioned off, and dimethyl sulfoxide (DMSO) (150 μL) and glycine buffer (20 μL) were added to dissolve the formazan crystals. The plates were shaken for 10 min. The optical density of each well was determined at 595 nm using a multiplate reader (Zenyth 3100, Anthos Labtec Instruments GmbH, Salzburg, Austria). Experiments were performed in triplicates and repeated in three independent series. The percentage of cell viability was determined by comparison with untreated controls according to formula: % of viable cells = (E − B)/(S − B) × 100, where B is for the background of the medium alone, S is for the total viability/spontaneous death of untreated target cells, and E is for the experimental well. The IC50 values were determined by plotting the percentage viability versus concentration on a logarithmic graph and reading off the concentration at which 50% of cells remained viable relative to the control.

[2] = test system: HCT116 (human colon carcinoma cell line); assay: MTT assay cytotoxicity, HCT116; format: cell-based
Method: as §1, §2

[3] = test system: SW480 (human colon carcinoma cell line); assay: MTT assay cytotoxicity, SW480; format: cell-based
Method: as §1, §2

HCT116 cells [4] = assay: LDH release assay, HCT116; format: cell-based, human; settings: HCT116, 300 μM, 24 h
Method: (§3) The cytotoxicity of used complexes was examined by an In Vitro Toxicology Assay Kit, Lactic Dehydrogenase based (Sigma-Aldrich, St. Lous, MO, USA). Cells were prepared and treated with complexes in the same manner as for the MTT assay. Additional wells were prepared as high control cells were treated with 1/10 volume of LDH Assay Lysis Solution for 45 min. Cells exposed to medium were used as low controls. After treatment, supernatant (50 μL) was transferred to new plate and incubated with an equivalent volume of Lactate Dehydrogenase Assay Mixture (which was prepared by mixing equal volumes of LDH Assay Substrate Solution, LDH Assay Dye Solution, and 1’ LDH Assay Cofactor Preparation. After incubating the plates in the dark for 30 min at room temperature, reaction was terminated by the addition of 10 μL of 1 N HCl to each well and data were acquired by spectrophotometry at 490 nm. The percentage of dead cells was calculated using the formula [44]:% of dead cells = (exp. value − low control)/(high control − low control) × 100.

SW480 cells = assay: LDH release assay, SW480; format: cell-based, human; settings: SW480, 300 μM, 24 h
Method: as §3

CT26 cells [5] = assay: Annexin V-FITC/PI double staining, flow cytometry, CT26; format: cell-based, mouse; settings: CT26, IC50 concentrations, 24 h
Method: (§4) For the detection of apoptosis, the Annexin V binding capacity of treated cells was examined by flow cytometry using an Annexin V-fluorescein isothiocyanate (FITC) Detection Kit (BD Pharmingen, San Jose, CA, USA) according to the manufacturer’s protocol. […] Following the incubation, all cells were trypsinized, washed in PBS, centrifuged, and resuspended in 100 μL of ice-cold binding buffer (10× binding buffer: 0.1 M Hepes/NaOH (pH 7.4), 1.4 M NaCl, 25 mM CaCl2) at a concentration of 1 × 10^6/mL. Annexin V-FITC and propidium iodide (PI) were added to the 100 μL of cell suspension and incubated for 15 min at room temperature (25 °C) in the dark. After incubation, 400 μL of 1× binding buffer was added to each tube and stained cells were analyzed within 1 h using a flow cytometer FACS Calibur (BD Biosciences, San Jose, CA, USA). Data were analyzed using FlowJo Software version VX [45]. Measurements were presented as density plots of Annexin V-FITC and PI stainings.

HCT116 cells [6] = assay: Annexin V-FITC/PI double staining, flow cytometry, HCT116; format: cell-based, human; settings: HCT116, IC50 concentrations, 24 h
Method: as §4

CT26 cells [7] = assay: Cell cycle analysis, CT26; format: cell-based, mouse; settings: CT26, IC50 doses, 24 h
Method: (§5) Both the apoptosis induction and/or cell cycle arrest may reduce the viability of carcinoma cells. Thus, we next investigated the impact of ruthenium(II) terpyridine complexes on possible cell cycle disturbances in colon carcinoma cells.
(§6) Cell cycle analysis was performed with a Vybrant® DyeCycle™ Ruby stain (Thermo Fisher Scientific, Waltham, MA, USA) according to the manufacturer’s instructions. CT26, HCT116, and SW480 cells stained with Vybrant DyeCycle Ruby were analyzed by a Fluorescence-activated cell sorting (FACS) Calibur flow Cytometer (BD Biosciences, San Jose, CA, USA). The cell cycle distribution was analyzed using FlowJo software and the results were presented as histograms.

[8] = test system: syngeneic CT26 mouse colon carcinoma; assay: Heterotopic CT26 colon carcinoma growth in mice; format: in vivo, BALB/c mice; settings: 2 mg/kg i.p.; for tumor weights after necropsy versus vehicle-treated mice: four times in total; for tumor growth inhibition (TGI): four times in total from day six, last day of the experiment; for necrosis fields in primary tumor, histology: hematoxylin and eosin
Method: In view of the proven cytotoxic effects of ruthenium(II) terpyridine complexes in vitro, the next goal of the present study was to examine the ability of tested compounds to inhibit murine colon cancer growth and progression in vivo. CT26 cells were heterotopically implanted into the shaved flank of the mice.
Male BALB/c mice of 6–8 weeks of age were used in all experiments. Mice were housed in a temperature-controlled environment (22–24 °C) with a 12 h light–dark cycle and were given standard laboratory food and water ad libitum. […] All experiments were approved (01-8461/2) by, and conducted in accord with, the Guidelines of the Animal Ethics Committee of the Faculty of Medical Sciences of the University of Kragujevac (Kragujevac, Serbia).
The size of primary CT26 colon tumors were assessed morphometrically using electronic calipers in two dimensions. The tumor volume was calculated as follows: tumor volume (mm^3) = (L × W^2)/2, where L is the longest and W the shortest […] of the tumor in millimeters. Results were expressed as means of tumor volumes ± SD. The percent tumor growth inhibition (TGI) was determined according to the formula, TGI(%) = (Vc − Vt)/(Vc − Vo) × 100, where Vc − Vt are the median of control and treated groups at the end of the study and Vo at the start.

[9] = Systemic toxicity in CT26 tumor-bearing mice (body and organ weight, serum biochemistry, histopathology); settings: 2 mg/kg i.p.
Method: Finally, in order to examine the safety of ruthenium(II) terpyridine complexes in vivo, the mice’s body weight was measured before tumor cell inoculation and at the end of experiment. The toxicity associated with ruthenium(II) terpyridine complexes treatment was assessed at biochemical and histopathological levels. The serum concentrations of the biochemical markers ALT, AST, urea, and creatinine were obtained to evaluate the liver and renal functions. In addition, the histopathological changes in the target organs, liver, heart, lungs, and kidneys were evaluated.
BALB/c mice bearing syngeneic CT26 mouse colon carcinoma were selected as the test system, as this experimental model has been extensively used for this kind of research in the literature [47]. For heterotopic colon carcinoma model, 1 × 10^6 CT26 cells suspended in 100 μL of DMEM were injected subcutaneously into the left flank of mice. Tumor-bearing mice were examined every 3 days for tumor development and progression and monitoring body weight. Animals were randomized into 4 groups with 6 tumor-bearing mice that were ear-tagged and followed-up individually throughout the study. The intraperitoneal administration of complexes or saline began on sixth day after post-tumor inoculation. Each drug was administered at doses of 2 mg/kg dissolved in 200 μL saline, twice weekly for four times in total (Scheme 2).
To study the potential side effects of ruthenium(II) terpyridine complexes, treated mice were monitored for weight loss. […] Blood samples were collected from abdominal aorta of each mouse in tubes without anticoagulant, and a separated serum was processed and analyzed by the chemistry analyzer Roche Cobas Mira Plus. The levels of serum urea, creatinine, and liver enzymes—aspartate aminotransferase (AST) and alanine aminotransferase (ALT)—were determined to assess the renal and hepatic function. After sacrificed, organ weights of the heart, liver, lungs, and kidneys, as well as the tumors, were determined for each animal, and the relative organ weight was calculated as % body weight. The tissue sections of various organs (heart, liver, lungs, and kidneys) and tumor were isolated for histopathological analysis. The tissues fixed in 4% paraformaldehyde were embedded in paraffin, cut into thin sections and mounted on glass slides. The tissue sections were stained with hematoxylin and eosin for microscopic examination.

[10] = Behaviour in aqueous solution by 1H NMR in D2O; format: physicochemical; settings: ambient temperature, forms aqua species
Method: (§7) These new resonances, which grew at the expense of those of the parent compound, were attributed to the aqua species [Ru(Cl-tpy)(en)(OH2)]^2+ (1aq) and [Ru(Cl-tpy)(dach)(OH2)]^2+ (2aq), respectively (Scheme 1).
(§8) The compounds [Ru(Cl-tpy)(en)Cl][Cl] […] All other chemicals were used as purchased without further purification. NMR spectra were recorded on a Varian Gemini 200 MHz spectrometer. All chemical shifts were referenced to TSP (trimethylsilylpropionic acid) at d = 0.00. All NMR spectra were run at 295 K.

[11] = test system: HeLa, A549 and MRC-5 cells; design: method as in PMID 26855406, PMID 28088012; settings: previously conducted study; read-out: IC50, range over HeLa, A549 and MRC-5; cited from earlier work
CT26 cells [12] = assay: LDH release assay, CT26; format: cell-based, mouse; settings: CT26, 300 μM, 24 h
Method: as §3

HCT116 cells [13] = assay: Cell cycle analysis, HCT116; format: cell-based, human; settings: HCT116, IC50 doses, 24 h
Method: as §5, §6

[14] = Interaction with glutathione by 1H NMR in D2O; settings: 10 mM in D2O, GSH added to equilibrated solution
Method: as §7
The addition of GSH to an equilibrated solution of Ru-1 (10 mM) in D2O induced very slow changes in the ^1H NMR spectrum (Figure 2). A new set of resonances, attributable to the thiolate adduct [Ru(Cl-tpy)(en)(GS-S)] (3), became apparent in the ^1H NMR spectrum after 6 h. […] (4).
as §8

[15] = design: method as in PMID 26855406; settings: cited from earlier work

| SMILES | IC50 ([1]; 24 h exposure) | IC50 ([1]; 72 h exposure) | IC50 ([2]; 24 h exposure) | IC50 ([2]; 72 h exposure) | IC50 ([3]; 24 h exposure) | IC50 ([3]; 72 h exposure) | LDH levels (LDH release, % of dead cells) (HCT116 cells [4]) | LDH levels (LDH release, % of dead cells) (SW480 cells) | late apoptosis in HCT116 cells, in words (HCT116 cells [6]) | cell cycle disturbance (CT26 cells [7]) | tumor weights after necropsy versus vehicle-treated mice [8] | tumor growth inhibition (TGI) [8] | necrosis fields in primary tumor, histology [8] | serum concentration of creatinine ([9]; tumor-bearing mice) | serum level of ALT ([9]; tumor-bearing mice) | serum level of AST compared to the control group ([9]; tumor-bearing mice) | lability of the chloride ligand in aqueous solution [10] | IC50 [11] | other results |
| --- | --- | --- | --- | --- | --- | --- | --- | --- | --- | --- | --- | --- | --- | --- | --- | --- | --- | --- | --- |
| O=C1[O][Pt]2([NH][C@@H]3CCCC[C@H]3[NH]2)[O]C1=O [Oxaliplatin, oxaliplatin, reference compound] | 54.5 ± 4 µM | 25.2 ± 2 µM | 9.7 ± 8 µM | 0.1 µM | 100 ± 9 µM | 1.3 µM | 0% | 2.20% | induced late apoptosis | G2/M phase arrest | markedly lower | 51.39% | no greater than the necrosis field in untreated mice tumors | did not affect | no difference | no difference | – | – | apoptotic death of CT26 tumor cells, in words (CT26 cells [5]): moderately induced apoptotic death |
| Clc1cc(-c2ccccn2)nc(-c2ccccn2)c1.NC1CCCCC1N.[Cl-].[Cl-].[Ru+2] [Ru-2, [Ru(Cl-tpy)(dach)Cl][Cl]] | 167 ± 12 µM | 148 ± 11 µM | 50.4 ± 5 µM | 20.4 ± 1 µM | 156 ± 12 µM | 86.4 ± 7 µM | 2.35% | 33.07% | – | – | slightly smaller than tumors from the control group, but without statistical significance | 17.56% | larger compared to necrosis fields in the tumors of untreated mice and oxaliplatin-treated mice | – | no difference | no difference | very labile | 72.8 to 111 µM | serum urea concentration, excess compared to all other groups ([9]; tumor-bearing mice): ~ 3 units |
| Clc1cc(-c2ccccn2)nc(-c2ccccn2)c1.NCCN.[Cl-].[Cl-].[Ru+2] [Ru-1, [Ru(Cl-tpy)(en)Cl][Cl]] | 43.3 ± 3 µM | 50.9 ± 4 µM | 31.8 ± 2 µM | 19.1 ± 1 µM | 50.4 ± 4 µM | 44.7 ± 4 µM | 8.37% | – | induced late apoptosis | G2/M phase arrest | markedly lower | 53.41% | The largest part of the primary tumor of Ru-1-treated mice was necrotic | did not affect | – | – | very labile | 32.8 to 66.3 µM | LDH levels (LDH release, % of dead cells) (CT26 cells [12]): 36.43%; cell cycle disturbance (HCT116 cells [13]): G2/M phase arrest; time after which thiolate adduct with GSH became apparent in 1H NMR [14]: 6 h; log Po/w [15]: −1.33; histological changes in kidney tissue [9]: hyaline cylinders and focal hyaline glomerular change; serum concentration of urea compared to saline-treated mice ([9]; tumor-bearing mice): did not affect; histological changes in heart tissue ([9]; in comparison with oxaliplatin and saline-treated mice): No significant histological changes |
